From patent publication US6808875B2, “Methods for screening cellular proliferation using isotope labels” (priority 1997, dated 2004)

How the values were obtained:
[1] = Plasma glucose enrichment during labeled glucose infusion in rats; type: in vivo
Method: Trimethylsilyl derivatives of nucleosides were synthesized by incubation of lyophilized hydrolysates with BSTFA:pyridine (4:1) at 100° C. for 1 hour. Samples were analyzed by GC-MS (DB-17 HT column, J&W Scientific, Folsom Calif.; HP 5890 GC and 5971MS, Hewlett Packard, Palo Alto, Calif.). Abundances of ions at mass to charge ratio (m/z) 467 and 469 were quantified under selected ion recording mode for deoxyadenosine (dA); and m/z 555 and 557 were monitored for deoxyguanosine (dG). Under the derivatization and GC-MS conditions employed, the purines (dA and dG) gave larger peaks (FIG. 3) than the pyrimidines, resulting in greater sensitivity and a higher signal-to-noise ratio. To measure the enrichment of glucose, plasma or culture media were deproteinized with perchloric acid and passed through anion and cation exchange columns (Neese et al., 1995, J. Biol. Chem. 270:14452-14463). The glucose penta-acetate derivative was formed by incubation with acetic anhydride in pyridine. GC-MS analysis was performed as described previously (Neese et al., 1995, J. Biol. Chem […]), monitoring m/z 331 and 333 under selected ion recording.
Four rats (approximately 250 g) were infused with labeled glucose. […] DNA was extracted from cell preparations, then hydrolyzed to nucleosides and analyzed by GC-MS (FIG. 2). […]

[2] = human, in vivo
Method: Trimethylsilyl derivatives of nucleosides were synthesized by incubation of lyophilized hydrolysates with BSTFA:pyridine (4:1) at 100° C. for 1 hour. Samples were analyzed by GC-MS (DB-17 HT column, J&W Scientific, Folsom Calif.; HP 5890 GC and 5971MS, Hewlett Packard, Palo Alto, Calif.). Abundances of ions at mass to charge ratio (m/z) 467 and 469 were quantified under selected ion recording mode for deoxyadenosine (dA); and m/z 555 and 557 were monitored for deoxyguanosine (dG). Under the derivatization and GC-MS conditions employed, the purines (dA and dG) gave larger peaks (FIG. 3) than the pyrimidines, resulting in greater sensitivity and a higher signal-to-noise ratio. […]
One subject was a healthy normal volunteer and the other three were HIV-seropositive men, who were participating in lymphocyte kinetic studies (blood CD4 T cell counts in the range 215-377/mm^3). […] Granulocyte DNA was extracted, hydrolyzed to nucleosides and analyzed by GC-MS, as described in Section 6.1.2, supra. […]
All were clinically stable at the time of investigation. […] Granulocytes were isolated and dA enrichment measured from DNA. […]
48-hr constant intravenous infusions of labeled glucose were performed to ensure a representative time sample of T cell kinetics. Enrichments of plasma glucose were measured every 12 hr during the infusion. […]

HIV-1 = conditions: Patient #6, previous protease inhibitor
[3] = system: lymphocytic cell line, H9; assay: Label incorporation into dA of DNA in cultured H9 cells (GC-MS, cell counting); type: cell-based; conditions: H9, unlabeled glycerol
Method: (§1) DNA was prepared from cells or tissues by phenol-chloroform-isoamyl alcohol extraction of cell suspensions or tissue homogenates. Yield and purity were confirmed by optical density. After heat denaturation, DNA was hydrolyzed enzymatically to deoxyribonucleosides by sequential digestion with nuclease P1, phosphodiesterase, and alkaline phosphatase, as described by Crain et al. (Crain, 1990, Methods Enzymol. 193:782-790). Nucleoside yield and purity were confirmed by HPLC using a C-18 column and water-methanol gradient (Shigenaga et al., 1994, Methods Enzymol. 234:16-33).
(§2) Trimethylsilyl derivatives of nucleosides were synthesized by incubation of lyophilized hydrolysates with BSTFA:pyridine (4:1) at 100° C. for 1 hour. Samples were analyzed by GC-MS (DB-17 HT column, J&W Scientific, Folsom Calif.; HP 5890 GC and 5971MS, Hewlett Packard, Palo Alto, Calif.). Abundances of ions at mass to charge ratio (m/z) 467 and 469 were quantified under selected ion recording mode for deoxyadenosine (dA); and m/z 555 and 557 were monitored for deoxyguanosine (dG). […]
(§3) Two cell lines were used: a hepatocyte cell line, HepG2, and a lymphocytic cell line, H9, which is a CD4^+ T cell line. […] In both cases the number of cells present was measured by counting an aliquot on a Coulter ZM0901 cell counter. […]

[4] = system: hepatocyte cell line, HepG2; assay: Label incorporation into dA of DNA in cultured HepG2 cells (GC-MS, cell counting); type: cell-based; conditions: HepG2, unlabeled glycerol
Method: as §1, §2, §3

[2H]C([2H])(O)[C@H]1OC(O)[C@H](O)[C@@H](O)[C@@H]1O (stereo partly drawn) [[6,6-^2H2] glucose]
Mean glucose enrichment for the 24 hr infusion period ([1]; rat, in vivo): 9.2±0.6% | Plasma glucose enrichment at sacrifice ([1]; rats (n=4), iv infusion approximately 24 hours, fasting): 13.2±0.9% | Plasma enrichment after discontinuing the intravenous infusion, % of steady-state values [2]: < 10%

CC(C)(C)NC(=O)[C@@H]1CN(Cc2cccnc2)CCN1C[C@@H](O)C[C@@H](Cc1ccccc1)C(=O)N[C@H]1c2ccccc2C[C@H]1O [indinavir]
viral load at failure (HIV-1): 28,000

OCC(O)CO [unlabeled glycerol, glycerol]
Effect on labeling from 10% [6,6-^2H2] glucose [3]: did not affect labeling | Reduction of incorporation into dA from 10% [6,6-^2H2] glucose [4]: 7%
